The source of these data is US7071180B2, “Certain arylaliphatic and heteroaryl-aliphatic piperazinyl pyrazines and their use in the treatment of serotonin-related diseases” (Biovitrum AB, priority 1999, dated 2006).

SMILES strings stand for the structures. Where a name gives a salt, the structure may show the parent alone.

What is called Ki is a measure of affinity in units of concentration, obtained from inhibition or displacement. Read a low Ki as a stronger hold on the target. For orientation: melting point means the temperature, or range, at which the solid turns liquid.

The target of the first data set is T1, human 5-HT2c receptor (Homo sapiens, UniProt P28335).
T1 construct: expressed in transfected cells
T1 sequence (P28335 33-458): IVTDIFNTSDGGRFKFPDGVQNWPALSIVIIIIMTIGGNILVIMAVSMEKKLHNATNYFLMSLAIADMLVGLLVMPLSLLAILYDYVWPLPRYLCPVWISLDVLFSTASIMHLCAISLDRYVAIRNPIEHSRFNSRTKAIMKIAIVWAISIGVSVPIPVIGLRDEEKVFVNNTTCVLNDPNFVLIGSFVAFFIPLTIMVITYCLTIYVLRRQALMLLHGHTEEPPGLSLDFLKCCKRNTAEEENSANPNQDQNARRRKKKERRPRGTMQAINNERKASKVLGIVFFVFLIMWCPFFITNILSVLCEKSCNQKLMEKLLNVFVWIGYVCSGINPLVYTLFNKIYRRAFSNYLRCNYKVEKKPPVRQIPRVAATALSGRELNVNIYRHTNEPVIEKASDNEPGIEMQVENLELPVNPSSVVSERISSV
The data set can be described thus: 5-HT2c receptor affinity assay (displacement of 3H-labelled 5-HT, Scintillation Proximity Assay). The settings on record: displacement of 3H-5-HT from membranes of transfected HEK293 cells expressing human 5-HT2c receptor; non-specific binding 5 μM mianserin. As to the method: The 5-HT2c receptor affinity of compounds in the Examples was determined in competition experiments, where the ability of each compound in serial dilution to displace ^3H-labelled 5-HT, bound to membranes prepared from a transfected HEK293 cell line stably expressing the human 5-HT2c receptor protein was monitored by Scintillation Proximity Assay technology. Non-specific binding was defined using 5 μM mianserin. Typically, the 5HT2c receptor affinity values (Ki, nM) were in the range of 1 nM to 1500 nM.
`NC1CCN(c2nccnc2OCCOc2ccccc2Cl)C1` (stereo not drawn) [Example 23, 2-(2-Chlorophenoxy)ethyl 3-(3-amino-1-pyrrolidinyl)-2-pyrazinyl ether] had a Ki of 377 nM.
`COc1cc(OC)cc(OCCOc2nccnc2N2CCNCC2)c1` [Example 57, 2-(3,5-Dimethoxyphenoxy)ethyl 3-(1-piperazinyl)-2-pyrazinyl ether]: the Ki came out at 24 nM.
With `O=C1CCc2c(OCCOc3nccnc3N3CCNCC3)cccc21` [Example 82, 2-(1-Oxoindanyl-4-yloxy)ethyl 3-(1-piperazinyl)-2-pyrazinyl ether], the Ki amounted to 116 nM.
Compound `c1ccc2oc(COc3nccnc3N3CCNCC3)cc2c1` [Example 122, 2-(Benzofuran-2-ylmethoxy)-3-(1-piperazinyl)pyrazine] returned a Ki of 45 nM.
For the compound `c1ccc(CCCOc2nccnc2N2CCNCC2)nc1` [Example 125, 2-(1-piperazinyl)-3-[3-(2-pyridinyl)propoxy]pyrazine], the affinity corresponds to a Ki of 171 nM.
Same read-out and setting: as for `c1cncc(OCCOc2nccnc2N2CCNCC2)c1` [Example 150, 2-(3-Pyridyloxy)ethyl 3-(1-piperazinyl)-2-pyrazinyl ether], the figure is 50 nM.
Take `c1cc(OCCOc2nccnc2N2CCNCC2)ccn1` [Example 151, 2-(4-Pyridyloxy)ethyl 3-(1-piperazinyl)-2-pyrazinyl ether]: the affinity, expressed as Ki, was 185 nM.
As for `c1ccc2c(c1)NCC(COc1nc3ccccc3nc1N1CCNCC1)O2` (stereo not drawn) [Example 167, 2-(3,4-Dihydro-2H-1,4-benzoxazin-2-ylmethoxy)-3-(1-piperazinyl)quinoxaline], the Ki came out at 34 nM.
`C[C@@H]1CNCCN1c1nccnc1OCCOc1cccnc1` [Example 173, (2R)-Methyl-1-{3-[2-(3-pyridinyloxy)ethoxy]-2-pyrazinyl}piperazine]: the affinity corresponds to a Ki of 16 nM.
The compound `Cc1nc(OCCOc2ccccc2)c(N2CCNCC2)nc1C` [Example 183, 5,6-Dimethyl-2-(2-phenoxyethoxy)-3-(1-piperazinyl)pyrazine] showed a Ki of 10 nM.
With `C[C@@H]1CNCCN1c1nccnc1OCCOc1cccnc1Cl` [Example 194, (2R)-1-(3-{2-[(2-Chloro-3-pyridinyl)oxy]ethoxy}-2-pyrazinyl)-2-methylpiperazine], the affinity, expressed as Ki, was 5 nM.
On the same count and under the same terms, under `c1ccc(COc2cccc(OCCOc3nccnc3N3CCNCC3)c2)cc1` [Example 231, 2-{2-[3-(Benzyloxy)phenoxy]ethoxy}-3-(1-piperazinyl)pyrazine] stands 12 nM.

Tested on in the next data set: not given
Assay: not given
Conditions: not given
`COc1ccccc1CCCOc1nccnc1N1CCNCC1` (as salt: maleate) [Example 211, 2-[3-(2-Methoxyphenyl)propoxy]-3-(1-piperazinyl)pyrazine] gave a melting point of 132 to 133 °C.
As for `COc1ccccc1/C=C/COc1nccnc1N1CCNCC1` (as salt: maleate) [Example 212, 2-{[(2E)-3-(2-Methoxyphenyl)-2-propenyl]oxy}-3-(1-piperazinyl)pyrazine], the melting point was 136 °C (dec.).
For `c1ccc2c(c1)CCC(COc1nc3ccccc3nc1N1CCNCC1)O2` (stereo not drawn) (as salt: salt) [Example 168, 2-(3,4-Dihydro-2H-chromen-2-ylmethoxy)-3-(1-piperazinyl)quinoxaline], the melting point lay in the range of 202 to 204 °C.
Turning to `COc1cccc(OCCOc2nccnc2N2CCNCC2)c1` (as salt: toluenesulfonate) [Example 102, 2-[2-(3-Methoxyphenoxy)ethoxy]-3-(1-piperazinyl)pyrazine], the melting point lay in the range of 131 to 133 °C.
Turning to `Fc1cc(F)cc(OCCOc2nccnc2N2CCNCC2)c1` (as salt: toluenesulfonate) [Example 114, 2-[2-(3,5-Difluorophenoxy)ethoxy]-3-(1-piperazinyl)pyrazine], the melting point lay in the range of 118 to 119 °C.
`Brc1cccc(OCCOc2nccnc2N2CCNCC2)c1` [Example 37, 2-(3-Bromophenoxy)ethyl 3-(1-piperazinyl)-2-pyrazinyl ether] showed a melting point of 62 to 63 °C.
The compound `Clc1ccc(OCCOc2nc3ccccc3nc2N2CCNCC2)cc1` [Example 39, 2-[2-(4-Chlorophenoxy)ethoxy]-3-(1-piperazinyl)quinoxaline] had a melting point of 108 to 112 °C.
The same measure, in the same setting: under `c1cc(OCCOc2nccnc2N2CCNCC2)c2c(c1)OCCO2` [Example 79, 2-(2,3-Dihydro-1,4-benzodioxin-5-yloxy)ethyl 3-(1-piperazinyl)-2-pyrazinyl ether] stands 98 to 99 °C.
`Fc1cccc(F)c1OCCOc1nccnc1N1CCNCC1` [Example 83, 2-(2,6-Difluorophenoxy)ethyl 3-(1-piperazinyl)-2-pyrazinyl ether] showed a melting point of 101 to 102 °C.
As for `FC(F)(F)c1ccccc1OCCOc1nccnc1N1CCNCC1` [Example 91, 2-(2-Trifluoromethylphenoxy)ethyl 3-(1-piperazinyl)-2-pyrazinyl ether], the melting point lay within 79 to 80 °C.
On the same count and under the same terms, as for `c1ccc(-c2ccccc2OCCOc2nccnc2N2CCNCC2)cc1` [Example 97, 2-[(1,1′Biphenyl)-2-yloxy]ethyl 3-(1-piperazinyl)-2-pyrazinyl ether], the figure is 101 to 103 °C; as for `c1cnc2c(OCCOc3nccnc3N3CCNCC3)cccc2c1` [Example 138, 2-(8-Quinolinyloxy)ethyl 3-(1-piperazinyl)-2-pyrazinyl ether], 98 to 100 °C; as for `c1cnc(N2CCNCC2)c(OCCOc2ccc3cc[nH]c3c2)n1` [Example 142, 6-(2-{[3-(1-piperazinyl)-2-pyrazinyl]oxy}ethoxy)-1H-indole], 111 to 113 °C.
With `O=[N+]([O-])c1ccc2c(c1)OC(COc1nccnc1N1CCNCC1)CO2` (stereo not drawn) [Example 146, 2-(7-Nitro-2,3-dihydro-1,4-benzodioxin-2-ylmethoxy)-3-(1-piperazinyl)pyrazine], the melting point lay in the range of 133 to 135 °C.
Still for that read-out and setting: as for `c1ccc2nc(N3CCNCC3)c(OCCOc3cncnc3)nc2c1` [Example 166, 2-[2-(5-Pyrimidinyloxy)ethoxy]-3-(1-piperazinyl)quinoxaline], the figure is 115 to 117 °C; as for `CNc1ccc2cccc(OCCOc3nccnc3N3CCNCC3)c2n1` [Example 181, N-Methyl-8-(2-{[3-(1-piperazinyl)-2-pyrazinyl]oxy}ethoxy)-2-quinolinamine], 54 to 56.5 °C.

The next data set addresses T2, 5-HT2c receptor (Mus musculus, UniProt P34968).
T2 construct: mice that express the normal 5-HT2c receptor; host or cells: mice (in vivo)
T2 sequence (P34968 33-459): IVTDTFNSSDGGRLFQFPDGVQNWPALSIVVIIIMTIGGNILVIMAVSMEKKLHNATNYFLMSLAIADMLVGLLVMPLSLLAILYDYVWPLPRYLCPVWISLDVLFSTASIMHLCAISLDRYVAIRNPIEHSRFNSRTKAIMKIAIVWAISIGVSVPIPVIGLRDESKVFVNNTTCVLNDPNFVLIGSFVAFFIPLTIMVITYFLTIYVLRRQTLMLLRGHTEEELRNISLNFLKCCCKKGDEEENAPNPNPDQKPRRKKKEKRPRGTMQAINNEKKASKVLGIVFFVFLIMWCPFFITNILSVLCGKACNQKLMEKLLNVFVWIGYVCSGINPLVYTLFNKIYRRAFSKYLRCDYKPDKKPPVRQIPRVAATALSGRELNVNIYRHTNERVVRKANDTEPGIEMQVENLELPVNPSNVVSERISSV
Assay: not given
The settings on record: mice that express the normal 5-HT2c receptor; cited from earlier work.
With `Clc1cccc(N2CCNCC2)c1` [mCPP, m-chlorophenylpiperazine], the body weight effect result is on record as “causes weight loss”.

The next data set relates to 5-HT2c receptor.
Assay: not given
The settings on record: mice expressing the mutated inactive form of the 5-HT2c receptor; cited from earlier work.
For the compound `Clc1cccc(N2CCNCC2)c1` [mCPP, m-chlorophenylpiperazine], the body weight effect result was “lacks activity”.

Tested on in the next data set: not given
Assay: not given
The settings on record: controlled studies; cited from earlier work.
Regarding `CCN[C@@H](C)Cc1cccc(C(F)(F)F)c1` [dexfenfluramine], the body weight effect entry is given as “weight reduction”.
Consider `CNCCC(Oc1ccc(C(F)(F)F)cc1)c1ccccc1` (stereo not drawn) [fluoxetine], for which the body weight effect entry is “weight reduction”.

The data set is the same for the next values; noted with them: obese subjects, after 2 weeks of treatment; cited from earlier work.
In the case of `Clc1cccc(N2CCNCC2)c1` [mCPP, m-chlorophenylpiperazine], the body weight effect result is reported as “slight but sustained reduction in body weight”.
